Source: US9447086B2, “6-amino acid heteroaryldihydropyrimidines for the treatment and prophylaxis of hepatitis B virus infection” (priority 2012, dated 2016)
Values after ≈ are worked out from the molar mass of the structure shown.

Columns and labels:
[1] = Lyophilisation solubility assay (Lysa); type: physicochemical; conditions: phosphate buffer, pH 6.5, aqueous buffer, thermodynamic from solid
Method: The aqueous solubility is an important physico-chemical property that plays a significant role in various physical and biological processes. It is desirable to have good solubility which enables good permeability and gastric and intestinal absorption, linear dose proportionality, less PK variability, and easy formulation for PD/PK studies. […] Lyophilisation solubility assay (Lysa) is a well adopted high throughput assay to measure compound solubility in industry.
Samples are prepared in duplicate from 10 mM DMSO stock solutions. After evaporation of DMSO with a centrifugal vacuum evaporator, the residue is solved in 0.05 M phosphate buffer (pH 6.5), stirred for one hour and shaken for two hours. After one night, the solutions is filtered using a microtiter filter plate and the filtrate and its 1/10 dilution are then analyzed by direct UV measurement or by HPLC-UV. […] The results are in μg/mL.

HBV = assay: Anti-HBV activity in vitro in HepG2.2.15 cells (extracellular HBV DNA by qPCR); type: cell-based, Hepatitis B virus; conditions: Hepatitis B virus; HepG2.2.15 cells; in-house data; read-out: EC50
From the text: HepG2.2.15 and HepDE19 are stably-transfected cell lines containing the HBV genome. Both cell lines are derived from the hepatoblastoma cell line Hep G2 (American Type Culture Collection, ATCC® HB-8065™) by the published procedures described in references: MA Selles et al. Proc. Natl. Acad. Sci. USA 1987, 84, 1005-1009 and H Guo et al. Journal of Virology 2007, 81, 12472-12484, respectively. Both cell lines were maintained in Dulbecco's modified Eagle's medium (DMEM)-F12 medium supplemented with 10% fetal bovine serum, 100 U/mL penicillin, 100 μg/mL streptomycin, and 0.5 mg/mL of G418.
While HepG2.2.15 cells constitutively support HBV replication and production of virus particles, HepDE19 cells are inducible by tetracycline. Addition of 1 μg/mL tetracycline in culture medium suppresses HBV replication in HepDE19 cells, whereas switching to tetracycline-free medium resumes this process.
HepG2.2.15 cells were seeded into 96-well plates (3×10^4 cells in 100 μl media per well) and incubated overnight at 37° C. The test compounds were serially half-log diluted in DMSO, then diluted 100 times in culture media. 100 μL diluted compounds were added into the plates to reach 0.5% final concentration of DMSO in every well. Five days after compound treatment, culture supernatant was collected for further analysis.
For quantitative PCR detection of extracellular HBV DNA, 100 μL culture supernatant was collected and processed in MagNA Pure 96 Nucleic Acid Purification System (Roche Applied Science) for viral DNA extraction. The extracted samples were subjected to HBV DNA quantification by qPCR.
The compounds of the present invention were tested for their capacity to inhibit a HBV activity and activation as described herein.

[2] = Metabolic stability study in human microsome; type: in vitro ADME
Method: Human Microsomes were preincubated with test compound for 10 min at 37° C. in 100 mM phosphate buffer, pH 7.4. The reactions were initiated by adding NADPH or NADPH regenerating system to give a final incubation volume of 400 μL. For NADPH system, the final incubations contained 1 μM test compound, 0.5 mg/mL liver microsomal protein, 1 mM NADPH in 100 mM phosphate buffer, pH 7.4. For the NADPH regenerating system, the final incubations contained 1 μM test compound, 0.5 mg/mL liver microsomal protein, 3 mM glucose 6-phosphate, 1 mM NADP, 3 mM MgCl2 and 0.05 mg/mL glucose 6-phosphate dehydrogenase in 100 mM phosphate buffer, pH 7.4. After incubation times of 0, 3, 6, 9, 15 and 30 minutes at 37° C., 50 μL samples was removed and transferred to 150 μL methanol solution which was maintained at 4° C. containing 2 μM tolbutamide (internal standard) to terminating the reaction. Following precipitation and centrifugation, the amount of compound remaining in the samples were determined by LC-MS/MS. Controls of no NADPH or NADPH regenerating system at zero and 30 min were also prepared and analyzed.

| Structure (SMILES) | solubility thermodynamic [1] [µg/mL] | EC50 (HBV) [nM] | Human Hepatic Clearance [2] [mL/min/kg] |
| --- | --- | --- | --- |
| CCOC(=O)C1=C(CN2CC(F)(F)C[C@H]2C(=O)O)NC(c2nccs2)=NC1c1ccc(F)c(F)c1Cl (stereo in doubt) [Example 55, (R)-6-((S)-2-Carboxy-4,4-difluoro-pyrrolidin-1-ylmethyl)-4-(2-chloro-3,4-difluoro-phenyl)-2-thiazol-2-yl-1,4-dihydro-pyrimidine-5-carboxylic acid ethyl ester] | > 670 | 1 |  |
| COC(=O)C1=C(CN2CCSCC2C(=O)O)NC(c2nccs2)=N[C@H]1c1ccc(F)cc1Cl (stereo in doubt) [Example 91, (3S)-4-[[(4R)-4-(2-Chloro-4-fluoro-phenyl)-5-methoxycarbonyl-2-thiazol-2-yl-1,4-dihydropyrimidin-6-yl]methyl]thiomorpholine-3-carboxylic acid] | 584 (≈ 1140 µM) | 38 | 1.62 |
| COC(=O)C1=C(CN2CCOC[C@H]2C(=O)O)NC(c2nc(C)cn2C)=NC1c1ccc(F)cc1Cl (stereo in doubt) [Example 92, (S)-4-[(S)-6-(2-Chloro-4-fluoro-phenyl)-2-(1,4-dimethyl-1H-imidazol-2-yl)-5-methoxycarbonyl-3,6-dihydro-pyrimidin-4-ylmethyl]-morpholine-3-carboxylic acid] | > 602 | 14 | 1.26 |
| COC(=O)C1=C(CN2CC(F)(F)C[C@H]2C(=O)O)NC(c2ncc(F)cc2F)=N[C@H]1c1ccc(F)cc1Cl [Example 4, (R)-6-((S)-2-Carboxy-4,4-difluoro-pyrrolidin-1-ylmethyl)-4-(2-chloro-4-fluoro-phenyl)-2-(3,5-difluoro-pyridin-2-yl)-1,4-dihydro-pyrimidine-5-carboxylic acid methyl ester] | > 700 | 1.5 | 5.11 |
| COC(=O)C1=C(CN2CC(F)(F)C[C@H]2C(=O)O)NC(c2ccc(F)cc2F)=N[C@H]1c1ccc(F)cc1Cl [Example 33, (R)-6-((S)-2-Carboxy-4,4-difluoro-pyrrolidin-1-ylmethyl)-4-(2-chloro-4-fluoro-phenyl)-2-(2,4-difluoro-phenyl)-1,4-dihydro-pyrimidine-5-carboxylic acid methyl ester] |  | 23 | 4.15 |
| COC(=O)C1=C(CN2CC(F)(F)C[C@H]2C(=O)O)NC(c2nc(SC)cs2)=N[C@H]1c1ccc(F)cc1Cl [Example 62, (2S)-1-[[(4R)-4-(2-Chloro-4-fluorophenyl)-5-methoxycarbonyl-2-(4-methylsulfanyl-1,3-thiazol-2-yl)-1,4-dihydropyrimidin-6-yl]methyl]-4,4-difluoropyrrolidine-2-carboxylic acid] |  | 14 | 9.06 |
| COC(=O)C1=C(CN2CCOC[C@H]2C(=O)O)NC(c2nc(C(F)F)cs2)=N[C@H]1c1ccc(F)cc1Cl [Example 88, (3S)-4-[[(4R)-4-(2-Chloro-4-fluoro-phenyl)-2-[4-(difluoromethyl)thiazol-2-yl]-5-methoxycarbonyl-1,4-dihydropyrimidin-6-yl]methyl]morpholine-3-carboxylic acid] | > 665 |  | 6.46 |
| COC(=O)C1=C(CN2CC(F)(F)C(C)(C)[C@H]2C(=O)O)NC(c2nccs2)=N[C@H]1c1ccc(F)cc1Cl [Example 89, (R)-6-((S)-2-Carboxy-4,4-difluoro-3,3-dimethyl-pyrrolidin-1-ylmethyl)-4-(2-chloro-4-fluoro-phenyl)-2-thiazol-2-yl-1,4-dihydro-pyrimidine-5-carboxylic acid methyl ester] | > 525 |  | 6.13 |
| COC(=O)C1=C(CN2CCSC(C)(C)[C@H]2C(=O)O)NC(c2nccs2)=N[C@H]1c1ccc(F)cc1Cl [Example 90, (3R)-4-[[(4R)-4-(2-Chloro-4-fluoro-phenyl)-5-methoxycarbonyl-2-thiazol-2-yl-1,4-dihydropyrimidin-6-yl]methyl]-2,2-dimethyl-thiomorpholine-3-carboxylic acid] | > 610 |  | 5.52 |
